Assay results taken from patent US5189044A, “Isoquinoline-1,3-dione acetyl carbamates useful as aldose reductase inhibitors” (American Home Products Corporation, priority 1992, dated 1993).

Experiments:
[1] = system: dulcitol accumulation in the sciatic nerve; assay: galactosemic rats, dulcitol (galactitol) accumulation in sciatic nerve; assay type: in vivo, rat (Sprague-Dawley); settings: 4 days, vs untreated galactosemic rats
Excerpt: (§1) The aldose reductase inhibiting property of the compounds of this invention and the utilization of the compounds in preventing, diminishing and alleviating diabetic complications are demonstrable in experiments using galactosemic rats, see Dvornik et al., Science, 182, 1146 (1973). Such experiments are exemplified hereinbelow after the listing of the following general comments pertaining to these experiments:
(§2) (a) Four or more groups of six male rats, 50-70 g, Sprague-Dawley strain, were used. The first group, the control group, was fed a mixture of laboratory chow (Rodent Laboratory Chow, Purina) and glucose at 20% (w/w %) concentration. The untreated galactosemic group was fed a similar diet in which galactose is substituted for glucose. The third group was fed a diet prepared by mixing a given amount of the test compound with the galactose containing diet. The concentration of the galactose in the diet of the treated groups was the same as that for the untreated galactosemic group.
(§3) (b) After four days, the animals were killed by euthanization. The lenses were removed from the eyes and weighed. The sciatic nerves were dissected as completely as possible and weighed. Both tissues when frozen can be kept up to two weeks before being analyzed for dulcitol.
(§4) The figures under N and D represent the percentage decrease of dulcitol accumulation in the tissues of the sciatic nerve and diaphragm, respectively, for treated rats as compared to untreated rats.

[2] = system: dulcitol accumulation in the diaphragm; assay: galactosemic rats, dulcitol (galactitol) accumulation in diaphragm; assay type: in vivo, rat (Sprague-Dawley); settings: 4 days, vs untreated galactosemic rats
Excerpt: as §1, §2, §3, §4

aldose reductase = settings: 10^-5 M; aldose reductase from bovine lens
Method: (c) The polyol determination was performed by a modification of the procedure of M. Kraml and L. Cosyns, Clin. Biochem., 2,373 (1969). Only two minor reagent changes were made: (a) The rinsing mixture was an aqueous 5% (w/v) trichloroacetic acid solution and (b) the stock solution was prepared by dissolving 25 mg of dulcitol in 100 ml of an aqueous trichloroacetic acid solution. [N.B.: For each experiment the average value found in the tissue from rats fed the glucose diet was subtracted from the individual values found in the corresponding tissue in galactose-fed rats to obtain the amount of polyol accumulated.] […] In the present case the procedure of Hayman and Kinoshita was modified in that the final chromatography step was omitted in the preparation of the enzyme from bovine lens.

% Inhibition in vitro (aldose reductase) | SMILES | % Lowering Galacitol Accumulation in Vivo, Sciatic Nerve ([1]; 49.3 mg/kg/day in diet) | % Lowering Galacitol Accumulation in Vivo, Sciatic Nerve ([1]; 93.6 mg/kg/day in diet) | % Lowering Galacitol Accumulation in Vivo, Diaphragm ([2]; 49.3 mg/kg/day in diet) | % Lowering Galacitol Accumulation in Vivo, Diaphragm ([2]; 93.6 mg/kg/day in diet) | % Lowering Galacitol Accumulation in Vivo, Sciatic Nerve ([1]; 48.8 mg/kg/day in diet) | % Lowering Galacitol Accumulation in Vivo, Sciatic Nerve ([1]; 96.6 mg/kg/day in diet) | % Lowering Galacitol Accumulation in Vivo, Diaphragm ([2]; 48.8 mg/kg/day in diet) | % Lowering Galacitol Accumulation in Vivo, Diaphragm ([2]; 96.6 mg/kg/day in diet)
83% | COC(=O)NC(=O)CC1C(=O)N(Cc2nc3cc(C(F)(F)F)ccc3s2)C(=O)c2ccc(F)cc21 (stereo not shown) [F] | 39% | 59% | 74% | 81% | – | – | – | –
95% | COC(=O)NC(=O)CC1C(=O)N(Cc2nc3cc(C(F)(F)F)ccc3s2)C(=O)c2ccccc21 (stereo not shown) [H] | – | – | – | – | 61% | 73% | 81% | 87%
